Assay results from US10995357B2, “Rapid antimicrobial susceptibility testing based on a unique spectral intensity ratio analysis via single fluorescence membrane dye staining and flow cytometry” (POCARED Diagnostics LTD., priority 2017, dated 2021).
Read-outs that look alike come from different tables or passages of the source.

What was measured:
Type in all cases: cell-based
[1] = test system: E. coli; test: Rapid AST/MIC by spectral intensity ratio (SIR), FM 1-43 staining and flow cytometry, directly from positive blood culture; details: E. coli strain from positive blood culture; scatter plot unchanged at high antibiotic concentrations
Method: (§1) In general, the method includes; blood culture centrifugation, bacterial antimicrobial exposure for 2 to 4 hours, bacteria staining with a single fluorescence dye followed by a flow cytometric measurement, and mathematical analysis.
(§2) 31 positive blood cultures were obtained from Sheba Medical Center (Ramat-Gan, Israel) and tested for antimicrobial susceptibility with gentamicin and ampicillin antibiotics (Sigma-Aldrich, USA). A total of 62 positive blood samples-antibiotics combinations were tested. • a) Positive blood samples were received from Sheba Medical Center, 2 ml of each sample were centrifuged for 15 min at 24×g and Supernatants were diluted 1:1000 with Cation-Adjusted Mueller Hinton Broth (CAMHB). • b) Antimicrobial stock solutions were prepared according to CLSI recommendations, and were diluted in CAMHB, to a concentration which was 2 fold higher from the highest concentration recommended for each antimicrobial combination (“Class II Special Controls Guidance Document: Antimicrobial Susceptibility Test (AST) Systems”, Aug. […] As a positive control, a tube with bacterial sample solution (a) without antimicrobial agent. • h) All tubes were incubated at 37° C. • i) 2-4 hours from incubation initiation, 200 μl from each tube were transferred into a fresh tube, dyed with 2 μl of Synaptogreen or FM 1-43 (Sigma-Aldrich; Molecular Probes, respectively) and measured by a flow cytometer. The rest of the sample was further incubated for 16-20 hours and then was visually evaluated for growth.
(§3) In order to quantify the influence of a certain antimicrobial exposure we define the spectral intensity ratio (SIR) as follows: […]
(§4) The MIC is calculated by plotting the spectral intensity ratio (SIR) as a function of the antimicrobial concentration and approximating it to a step function in the form of […]

[2] = test system: K. pneumonia; test: as above; details: 2-4 hours antibiotic exposure, SIR step function fit
Method: as §1, §2, §3, §4

[3] = test system: 30 clinical isolates of E. coli, K. pneumoniae, E. cloacae, P. mirabilis, and C. freundii; test: Reference macro dilution method, visual growth after 16-20 hours, clinical isolates; details: for Reference Method Susceptibilities I: number of strains intermediate out of 30 clinical isolates; for Reference Method Susceptibilities R: number of strains resistant out of 30 clinical isolates; for Reference Method Susceptibilities S: number of strains susceptible out of 30 clinical isolates
Method: A total of 90 isolates-antibiotics combinations were tested. • a) All strains were cultured onto 5% sheep blood agar (Hylabs, Israel), following overnight incubation, colonies were harvested and suspended in Phosphate Buffer Saline (PBS, Sigma-Aldrich). […] 1 ml was discarded from the last tube in each set of tubes. • g) For each serial dilutions set, two controls were added. As a negative control, a tube with 2 ml of CAMHB. […] The rest of the sample was further incubated for 16-20 hours and then was visually evaluated for growth.

[4] = test system: 31 positive blood cultures (E. coli, K. pneumonia, A. baummanii, P. mirabilis, E. cloacae, Aeromonass spp., K. oxytoca); test: Reference macro dilution method, visual growth after 16-20 hours, positive blood cultures; details: for Reference Method Susceptibilities I: number of strains intermediate out of 31 positive blood cultures; for Reference Method Susceptibilities R: number of strains resistant out of 31 positive blood cultures; for Reference Method Susceptibilities S: number of strains susceptible out of 31 positive blood cultures
Method: 31 positive blood cultures were obtained from Sheba Medical Center (Ramat-Gan, Israel) and tested for antimicrobial susceptibility with gentamicin and ampicillin antibiotics (Sigma-Aldrich, USA). A total of 62 positive blood samples-antibiotics combinations were tested. • a) Positive blood samples were received from Sheba Medical Center, 2 ml of each sample were centrifuged for 15 min at 24×g and Supernatants were diluted 1:1000 with Cation-Adjusted Mueller Hinton Broth (CAMHB). • b) Antimicrobial stock solutions were prepared according to CLSI recommendations, and were diluted in CAMHB, to a concentration which was 2 fold higher from the highest concentration recommended for each antimicrobial combination (“Class II Special Controls Guidance Document: Antimicrobial Susceptibility Test (AST) Systems”, Aug. 28, 2009, FDA). • c) For each sample/antimicrobial combination, a set of tubes was prepared for which 1 ml of CAMHB medium was added, except for the first tube. • d) To each first tube of the set, 2 ml from the antimicrobial stock solution (b) was dispensed. • e) From the first tube a serial dilutions of 2 folds were prepared by transferring 1 ml of the solution to the next tube until the lowest required concentration by CLSI. 1 ml was discarded from the last tube in each set of tubes. • f) To each tube in the set, 1 ml of bacterial sample solution (a) was added. • g) For each serial dilutions set, two controls were added. As a negative control, a tube with 2 ml of CAMHB. As a positive control, a tube with bacterial sample solution (a) without antimicrobial agent. • h) All tubes were incubated at 37° C. • i) 2-4 hours from incubation initiation, 200 μl from each tube were transferred into a fresh tube, dyed with 2 μl of Synaptogreen or FM 1-43 (Sigma-Aldrich; Molecular Probes, respectively) and measured by a flow cytometer. The rest of the sample was further incubated for 16-20 hours and then was visually evaluated for growth.
62 samples (31 positive blood cultures and 2 antibiotics combination) were analyzed in triplicates. Each sample was measured by the flow cytometer and the MIC was calculated using the spectral intensity ratio (SIR) calculation and step function estimation. The bacteria identified within the samples were; E. coli (15 samples), K. pneumonia (6 samples), A. baummanii (4 samples), P. mirabilis (2 samples), E. cloacae (2 samples), Aeromonass spp. (1 sample), and K. oxytoca (1 sample).
Tables 1 and 2 present the results of the positive blood sample experiment using the macro dilution as the reference method. […] There are no errors as defined by “Class II Special Controls Guidance Document: Antimicrobial Susceptibility Test (AST) Systems,” Aug. 28, 2009, FDA.

[5] = test system: E. coli; test: Rapid AST/MIC by spectral intensity ratio (SIR), FM 1-43 staining and flow cytometry, from clinical isolates; details: E. coli clinical isolate; 2-4 hours antibiotic exposure; SIR step function fit
Method: (§5) Our method includes bacterial antimicrobial treatment for 2 to 4 hours, bacteria staining with a single fluorescence dye followed by a flow cytometric measurement, and mathematical analysis. The following paragraphs describe the method in details.
(§6) A total of 90 isolates-antibiotics combinations were tested. • a) All strains were cultured onto 5% sheep blood agar (Hylabs, Israel), following overnight incubation, colonies were harvested and suspended in Phosphate Buffer Saline (PBS, Sigma-Aldrich). […] The rest of the sample was further incubated for 16-20 hours and then was visually evaluated for growth.
(§7) In order to quantify the influence of a certain antimicrobial treatment, we define the spectral intensity ratio (SIR) as follows: […]
(§8) The MIC is calculated by plotting the spectral intensity ratio (SIR) as a function of the antimicrobial concentration and approximating it to a step function in the form of
(§9) Where a, b, and c are parameters and erf is the error function. The parameters are used to approximate the measured SIR to a step function; a is a scaling parameter, b determines the step slope, and c is the MIC value. […]

[6] = test system: C. freundii; test: as above; details: C. freundii clinical isolate; up to 32 μg/ml; SIR almost constant
Method: as §5, §6, §7, §8, §9

Row | Compound | Susceptibility (SIR as a function of antibiotic concentration) [1] | MIC ([2]; Klebsiella pneumoniae, read-out: MIC) | Reference Method Susceptibilities I [3] | Reference Method Susceptibilities R [3] | Reference Method Susceptibilities S [3] | Reference Method Susceptibilities I [4] | Reference Method Susceptibilities R [4] | Reference Method Susceptibilities S [4] | MIC [2] | MIC [5] | Susceptibility (SIR as a function of antibiotic concentration) [6]
1 | CC1(C)S[C@@H]2[C@H](NC(=O)[C@H](N)c3ccccc3)C(=O)N2[C@H]1C(=O)O [Ampicillin, ampicillin] | resistant | 4 µg/mL | 5 | 9 | 16 | 0 | 26 | 5 |  |  | 
2 | gentamicin |  |  | 4 | 5 | 21 | 0 | 10 | 21 | 1 µg/mL | 2 µg/mL | resistant
